# Data published in ChEMBL document CHEMBL5236632, “Membrane-Active Nonivamide Derivatives as Effective Broad-Spectrum Antimicrobials: Rational Design, Synthesis, and Biological Evaluation” (J Med Chem, 2022).
# Calls of active or inactive are those of the source. The calls are words filed in the database; no cut-off is given here.
# Columns and labels:
# [1] = tested on: Escherichia coli; test: Antibacterial activity against Escherichia coli ATCC 25922 assessed as reduction in bacterial load at 8 time of MIC measured with in 30 mins by time kill assay; assay type: functional; settings: 0.5 h
# [2] = tested on: Escherichia coli; test: Drug resistance development in Escherichia coli ATCC 25922 assessed as fold change in MIC measured after 20 passages; assay type: functional
# [3] = Cytotoxicity against mouse NCTC clone 929 cells assessed as cell viability after 24 hrs incubation byCCK-8 assay; assay type: toxicity, cell-based
# [4] = tested on: Acinetobacter baumannii; test: Antibacterial activity against Acinetobacter baumannii ATCC 17978 assessed as inhibition of visible growth measured after 18 to 24 hrs by broth dilution method; assay type: functional; settings: time 18-24 hrs
# [5] = tested on: Staphylococcus aureus; test: Antibacterial activity against methicillin-resistant Staphylococcus aureus NCTC 10442 assessed as inhibition of visible growth measured after 18 to 24 hrs by broth dilution method; assay type: functional; settings: time 18-24 hrs
# [6] = tested on: Acinetobacter baumannii; test: Antibacterial activity against Acinetobacter baumannii R2889 assessed as inhibition of visible growth measured after 18 to 24 hrs by broth dilution method; assay type: functional; settings: time 18-24 hrs
# [7] = tested on: Klebsiella pneumoniae; test: Antibacterial activity against Klebsiella pneumoniae ATCC 10031 assessed as inhibition of visible growth measured after 18 to 24 hrs by broth dilution method; assay type: functional; settings: time 18-24 hrs
# [8] = tested on: Cell membrane; test: Induction of outer membrane permeability in Escherichia coli ATCC 25922 assessed as increase fluoresence intensity at 4 to 8 times of MIC measured for 60 mins by NPN uptake assay; assay type: subcellular
# [9] = tested on: Pseudomonas aeruginosa; test: Antibacterial activity against Pseudomonas aeruginosa ATCC 9027 assessed as inhibition of visible growth measured after 18 to 24 hrs by broth dilution method; assay type: functional; settings: time 18-24 hrs
# [10] = Selectivity ratio, HC50 for hemolytic activity in rabbit RBC to MIC for antibacterial activity against Pseudomonas aeruginosa ATCC 9027; assay type: toxicity; settings: erythrocytes
# [11] = Cytotoxicity against HEK293 cells assessed as cell viability after 24 hrs incubation byCCK-8 assay; assay type: toxicity, cell-based; settings: human
# [12] = Haemolytic activity in rabbit red blood cells incubated for 60 mins by k multi-mode reader relative to control; assay type: toxicity, cell-based, Oryctolagus cuniculus, Erythrocyte
# [13] = tested on: Klebsiella pneumoniae; test: Antibacterial activity against Klebsiella pneumoniae ATCC 14581 assessed as inhibition of visible growth measured after 18 to 24 hrs by broth dilution method; assay type: functional; settings: time 18-24 hrs
# [14] = tested on: Staphylococcus aureus; test: Antibacterial activity against methicillin-resistant Staphylococcus aureus N315 assessed as inhibition of visible growth measured after 18 to 24 hrs by broth dilution method; assay type: functional; settings: time 18-24 hrs
# [15] = tested on: Staphylococcus aureus; test: Antibacterial activity against Staphylococcus aureus ATCC 29213 assessed as inhibition of visible growth measured after 18 to 24 hrs by broth dilution method; assay type: functional; settings: time 18-24 hrs
# [16] = tested on: Cell membrane; test: Induction of membrane depolarization in Staphylococcus aureus ATCC 29213 assessed as increase in fluorescence intensity at 4 to 8 times MIC measured for 60 mins by DiSC3(5) dye based fluorescence method; assay type: subcellular
# [17] = tested on: Cell membrane; test: Induction of membrane depolarization in Escherichia coli ATCC 25922 assessed as increase in fluorescence intensity at 4 to 8 times MIC measured for 60 mins by DiSC3(5) dye based fluorescence method; assay type: subcellular
# [18] = tested on: Escherichia coli; test: Antibacterial activity against Escherichia coli ATCC 25922 assessed as inhibition of visible growth measured after 18 to 24 hrs by broth dilution method; assay type: functional; settings: time 18-24 hrs
SMILES,Activity [1],fold change (FC) [2],CC50 at 24 h [3],MIC [4],MIC [5],MIC [6],MIC [7],Activity [8],MIC [9],MIC [10],CC50 at 24 h [11],"HC5 ([12]; erythrocyte, 1 h)",HC50 at 1 h ([12]; rabbit red blood cells),MIC [13],MIC [14],MIC [15],Activity [16],Activity [17],MIC [18]
CC1(C)S[C@@H]2[C@H](NC(=O)[C@H](N)c3ccc(O)cc3)C(=O)N2[C@H]1C(=O)O [AMOXICILLIN],0.29 log10CFU/ml,16,,,,,,,,,,,,,,,,,
CCCCCCCCC(=O)NCc1ccc(O)c(OC)c1 [NONIVAMIDE],,,59 µg/mL,> 50 µg/mL,> 50 µg/mL,> 50 µg/mL,> 50 µg/mL,inactive,> 50 µg/mL,> 50 µg/mL,62 µg/mL,> 200 µg/mL,> 200 µg/mL,> 50 µg/mL,> 50 µg/mL,> 50 µg/mL,inactive,inactive,> 50 µg/mL
